Data on one compound can be found in patent US5985589A, “Lipid kinase” (ICOS Corporation, priority 1999, dated 1999).

In the experiment the test system is p110δ. Briefly: PI 3-kinase activity of immunoprecipitated FLAG-tagged p110δ (lipid kinase assay, TLC/autoradiography). In kind it is biochemical, human. As to conditions: at 100 nM wortmannin; p110δ immunoprecipitated from transfected COS cells. The method, then: The FLAG-tagged p110δ was expressed by transfecting pCDNA3:p110δFLAG into COS cells using DEAE dextran. Three days after transfection, expression of p110δ was determined by immunoprecipitations and western blotting using the M2 monoclonal antibody (Kodak Scientific Imaging Systems) according to the manufacturer's instructions. PI 3-kinase activity was determined as described [Hu et al., Mol. Cell. Biol., 13:7677-7688 (1993)].
To determine the PI 3-kinase activity of p110δ, 5μl of immunoprecipitated p110δ was mixed with 1 μl of PI/EGTA and incubated at room temperature for 10 minutes [PI/EGTA is 10 mg/ml PI(Sigma) in CHCl3, which has been dried under a vacuum, resuspended in 20 mg/ml DMSO in the presence or absence of various concentrations of the PI3 kinase inhibitor wortmannin and diluted 1:10 in 5 mM EGTA] and added to 1 μl 10× HM buffer (200 mM HEPES pH7.2, 50 mM MnCl2), 0.5 μl γ^32 PATP (10 mCi/ml-300 Ci/mmol), 1 μl 100 μM ATP, and 1.5 μl H2 O and incubated at 30° C. for 15 minutes. The reactions were terminated by addition of 100μl 1M HCl. Lipids were extracted with 200 μl CHCl3 /MeOH (1:1) by vortexing for 1 minute followed by centrifugation at 16,000×g for 2 minutes at room temperature. The lipids were further extracted with 80 μl 1M HCl/MeOH (1:1) by vortexing for 1 minutes, followed by centrifugation at 16,000×g for 2 minutes at room temperature. […]

Consider `COC[C@H]1OC(=O)c2coc3c2[C@@]1(C)C1=C(C3=O)[C@@H]2CCC(=O)[C@@]2(C)C[C@H]1OC(C)=O` [wortmannin], for which the “inhibition of PI 3-kinase activity (generation of phosphorylated lipids)” value is reported as “approximately 50%”.
